Measured values as given in ChEMBL document CHEMBL5154869, “Discovery of 4-((E)-3,5-dimethoxy-2-((E)-2-nitrovinyl)styryl)aniline derivatives as potent and orally active NLRP3 inflammasome inhibitors for colitis” (Eur J Med Chem, 2022).
Calls of active or inactive are those of the source. The rule behind the calls is not given here.

Tests used:
[1] = system: Mus musculus; assay: Anti-colitis activity against DSS-induced colitis C57BL/6 mouse model assessed as reduction in IL-6 level in colon at 10 to 20 mg/kg, po administered once a day and measured on day 8 by ELISA; format: functional, organism-based; conditions: dose 10-20 mg/kg, time 8.0 day
[2] = target: NACHT, LRR and PYD domains-containing protein 3 (Mus musculus) (UniProt Q8R4B8); assay: Binding affinity to NLRP3 in mouse J774.A1 cell lysates assessed as reduction in protein degradation at 50 uM incubated at 48 to 78 degC by CETSA; format: subcellular
Sequence of NACHT, LRR and PYD domains-containing protein 3 (Mus musculus) (Q8R4B8 whole entry, the tested form may be a part): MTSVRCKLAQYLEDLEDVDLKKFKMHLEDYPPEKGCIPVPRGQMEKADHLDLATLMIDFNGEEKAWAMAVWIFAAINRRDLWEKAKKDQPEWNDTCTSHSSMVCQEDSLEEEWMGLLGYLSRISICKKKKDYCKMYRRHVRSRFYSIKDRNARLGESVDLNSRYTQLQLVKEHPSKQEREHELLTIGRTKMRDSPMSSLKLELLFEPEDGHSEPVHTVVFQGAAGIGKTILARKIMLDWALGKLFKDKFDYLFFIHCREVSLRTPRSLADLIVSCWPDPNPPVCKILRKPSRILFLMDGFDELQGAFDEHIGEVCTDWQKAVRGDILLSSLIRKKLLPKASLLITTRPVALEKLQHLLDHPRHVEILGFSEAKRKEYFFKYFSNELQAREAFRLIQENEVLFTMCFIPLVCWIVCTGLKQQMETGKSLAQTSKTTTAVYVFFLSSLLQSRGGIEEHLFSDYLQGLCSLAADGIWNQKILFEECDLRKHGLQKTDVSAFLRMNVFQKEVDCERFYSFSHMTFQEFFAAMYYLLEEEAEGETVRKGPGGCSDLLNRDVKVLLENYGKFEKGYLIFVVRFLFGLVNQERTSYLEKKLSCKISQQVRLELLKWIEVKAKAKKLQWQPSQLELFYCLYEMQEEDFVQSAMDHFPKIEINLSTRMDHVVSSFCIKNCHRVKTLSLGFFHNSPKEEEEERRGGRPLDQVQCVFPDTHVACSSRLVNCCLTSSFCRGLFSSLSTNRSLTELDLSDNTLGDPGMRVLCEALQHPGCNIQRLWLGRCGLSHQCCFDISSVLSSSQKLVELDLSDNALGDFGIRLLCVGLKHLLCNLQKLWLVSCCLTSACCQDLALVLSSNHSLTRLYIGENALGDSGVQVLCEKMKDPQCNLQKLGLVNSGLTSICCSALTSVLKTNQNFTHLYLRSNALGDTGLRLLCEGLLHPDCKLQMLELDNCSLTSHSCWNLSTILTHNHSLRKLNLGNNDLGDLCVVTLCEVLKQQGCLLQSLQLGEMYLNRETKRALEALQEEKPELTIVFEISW

[3] = system: Mus musculus; assay: Anti-colitis activity against DSS-induced colitis C57BL/6 mouse model assessed as reduction in decrease of goblet cells in colon at 10 to 20 mg/kg, po administered once a day and measured on day 8 by H and E staining based analysis; format: functional, organism-based; conditions: dose 10-20 mg/kg, time 8.0 day
[4] = system: Mus musculus; assay: Anti-colitis activity against DSS-induced colitis C57BL/6 mouse model assessed as reduction in body weight loss at 10 to 20 mg/kg, po administered once a day; format: functional, organism-based; conditions: dose 10-20 mg/kg
[5] = system: Mus musculus; assay: Anti-colitis activity against DSS-induced colitis C57BL/6 mouse model assessed as reduction in IL-1 beta level in colon at 10 to 20 mg/kg, po administered once a day and measured on day 8 by ELISA; format: functional, organism-based; conditions: dose 10-20 mg/kg, time 8.0 day
[6] = system: Mus musculus; assay: Anti-colitis activity against DSS-induced colitis C57BL/6 mouse model assessed as reduction in TNF-alpha level in colon at 10 to 20 mg/kg, po administered once a day and measured on day 8 by ELISA; format: functional, organism-based; conditions: dose 10-20 mg/kg, time 8.0 day
[7] = target: NACHT, LRR and PYD domains-containing protein 3 (Mus musculus) (UniProt Q8R4B8); assay: (§1) Inhibition of NLRP3 inflammasome activation in LPS/MSU-treated C57BL/6 mouse bone marrow-derived macrophages assessed as reduction in cleaved IL-1 beta level in culture supernatants preincubated for 3 hrs with LPS and for 30 mins with compound prior to MSU addition and measured after 30 mins by Western blot analysis; format: cell-based; conditions: BMDM, time 60.0 min
[8] = target: NACHT, LRR and PYD domains-containing protein 3 (Mus musculus) (UniProt Q8R4B8); assay: as §1, with “activated caspase 1(P20)” for “cleaved IL-1 beta”; format: cell-based; conditions: BMDM, time 60.0 min
[9] = system: Mus musculus; assay: Anti-colitis activity against DSS-induced colitis C57BL/6 mouse model assessed as reduction in colon shortening at 10 to 20 mg/kg, po administered once a day; format: functional, organism-based; conditions: dose 10-20 mg/kg
[10] = Metabolic stability in human hepatocytes assessed as intrinsic clearance by LC-MS/MS analysis; format: ADME, cell-based, Hepatocyte; conditions: read-out: CLH
[11] = target: NACHT, LRR and PYD domains-containing protein 3 (Mus musculus) (UniProt Q8R4B8); assay: (§2) Inhibition of NLRP3 inflammasome activation in LPS/nigericin-treated C57BL/6 mouse bone marrow-derived macrophages assessed as reduction in NEK7-NLRP3 protein-protein interaction at 2 to 4 uM preincubated for 3 hrs with LPS and for 30 mins with compound prior to nigericin addition and measured after 30 mins by immunoprecipitation method; format: cell-based; conditions: BMDM, dose 2-4 µM, time 60.0 min
[12] = Inhibition of LPS/nigericin-induced reactive oxygen species production in C57BL/6 mouse bone marrow-derived macrophages assessed as ROS level at 4 uM by DCFH-DA staining based flow cytometry (reference value: 33.51%); format: functional, BMDM; set-up: scale not given: the % may be the effect or the level left
[13] = Inhibition of LPS/nigericin-induced reactive oxygen species production in C57BL/6 mouse bone marrow-derived macrophages assessed as ROS level at 1 uM by DCFH-DA staining based flow cytometry (reference value: 33.51%); format: functional, BMDM; set-up: scale not given: the % may be the effect or the level left
[14] = target: NACHT, LRR and PYD domains-containing protein 3 (Homo sapiens, UniProt Q96P20); assay: Binding affinity to GFP-fused NLRP3 (unknown origin) expressed in HEK293T cells by MST assay; format: cell-based
Sequence of NACHT, LRR and PYD domains-containing protein 3 (Homo sapiens, UniProt Q96P20) (Q96P20 whole entry, the tested form may be a part): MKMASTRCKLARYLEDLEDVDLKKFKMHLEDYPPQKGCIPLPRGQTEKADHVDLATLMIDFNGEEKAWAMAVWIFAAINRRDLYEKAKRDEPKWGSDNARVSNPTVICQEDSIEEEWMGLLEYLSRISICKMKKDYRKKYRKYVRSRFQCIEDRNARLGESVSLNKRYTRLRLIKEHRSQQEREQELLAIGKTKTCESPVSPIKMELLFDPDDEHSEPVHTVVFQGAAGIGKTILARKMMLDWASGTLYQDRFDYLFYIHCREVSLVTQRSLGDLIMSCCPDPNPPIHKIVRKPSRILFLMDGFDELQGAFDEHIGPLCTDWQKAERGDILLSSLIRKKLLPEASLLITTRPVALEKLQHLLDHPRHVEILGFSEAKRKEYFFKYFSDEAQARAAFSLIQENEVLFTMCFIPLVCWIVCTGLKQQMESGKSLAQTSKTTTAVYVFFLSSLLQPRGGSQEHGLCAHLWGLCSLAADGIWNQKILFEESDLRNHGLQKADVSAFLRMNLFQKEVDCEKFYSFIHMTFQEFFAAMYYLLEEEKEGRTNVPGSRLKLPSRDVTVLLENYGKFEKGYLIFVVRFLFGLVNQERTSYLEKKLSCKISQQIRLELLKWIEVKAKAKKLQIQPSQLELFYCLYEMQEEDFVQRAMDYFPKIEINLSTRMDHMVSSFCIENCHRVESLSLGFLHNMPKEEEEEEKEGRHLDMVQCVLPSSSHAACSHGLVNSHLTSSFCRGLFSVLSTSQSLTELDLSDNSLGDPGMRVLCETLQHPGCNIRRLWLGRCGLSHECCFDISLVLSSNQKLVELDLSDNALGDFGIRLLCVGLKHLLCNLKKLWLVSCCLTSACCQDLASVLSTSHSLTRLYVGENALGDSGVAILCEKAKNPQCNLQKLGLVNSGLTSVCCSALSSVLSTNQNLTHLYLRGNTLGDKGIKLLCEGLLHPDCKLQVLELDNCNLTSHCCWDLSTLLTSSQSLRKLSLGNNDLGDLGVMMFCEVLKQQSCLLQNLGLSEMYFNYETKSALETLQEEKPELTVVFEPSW

[15] = target: NACHT, LRR and PYD domains-containing protein 3 (Mus musculus) (UniProt Q8R4B8); assay: (§3) Inhibition of NLRP3 inflammasome activation in LPS/nigericin-treated C57BL/6 mouse bone marrow-derived macrophages assessed as inhibition of ASC oligomerization preincubated for 3 hrs with LPS and for 30 mins with compound prior to nigericin addition and measured after 30 mins by Western blot analysis; format: cell-based; conditions: BMDM, dose 0.5-2 µM, time 60.0 min, DDE = dose-dependent effect
[16] = system: Mus musculus; assay: Anti-colitis activity against DSS-induced colitis C57BL/6 mouse model assessed as reduction in disease activity index administered po once a day; format: functional, organism-based; conditions: dose 10-20 mg/kg, DDE = dose-dependent effect
[17] = system: Mus musculus; assay: Anti-colitis activity against DSS-induced colitis C57BL/6 mouse model assessed as reduction in pathological index score of colon at 10 to 20 mg/kg, po administered once a day and measured on day 8 by H and E staining based analysis; format: functional, organism-based; conditions: dose 10-20 mg/kg, time 8.0 day
[18] = target: NACHT, LRR and PYD domains-containing protein 3 (Mus musculus) (UniProt Q8R4B8); assay: as §3, with “reduction in activated caspase 1(P20) level in cell lysates at 0.5 to 2 uM” for “inhibition of ASC oligomerization”; format: subcellular; conditions: BMDM, dose 0.5-2 µM, time 60.0 min, DDE = dose-dependent effect
[19] = target: NACHT, LRR and PYD domains-containing protein 3 (Mus musculus) (UniProt Q8R4B8); assay: as §1, with “LPS/ATP-treated” for “LPS/MSU-treated”, “activated caspase 1(P20)” for “cleaved IL-1 beta”, “cell lysates” for “culture supernatants”, “ATP” for “MSU”; format: subcellular; conditions: BMDM, time 60.0 min
[20] = Inhibition of LPS/nigericin-induced reactive oxygen species production in C57BL/6 mouse bone marrow-derived macrophages assessed as ROS level at 2 uM by DCFH-DA staining based flow cytometry (reference value: 33.51%); format: functional, BMDM; set-up: scale not given: the % may be the effect or the level left
[21] = target: NACHT, LRR and PYD domains-containing protein 3 (Mus musculus) (UniProt Q8R4B8); assay: as §1, with “LPS/ATP-treated” for “LPS/MSU-treated”, “activated caspase 1(P20)” for “cleaved IL-1 beta”, “ATP” for “MSU”; format: cell-based; conditions: BMDM, time 60.0 min
[22] = target: NACHT, LRR and PYD domains-containing protein 3 (Mus musculus) (UniProt Q8R4B8); assay: Inhibition of NLRP3 inflammasome activation in LPS/ATP-treated C57BL/6 mouse bone marrow-derived macrophages assessed as reduction in IL-1beta secretion preincubated for 3 hrs with LPS and for 30 mins with compound prior to ATP addition and measured after 30 mins by ELISA; format: cell-based; conditions: BMDM, time 60.0 min
[23] = target: NACHT, LRR and PYD domains-containing protein 3 (Mus musculus) (UniProt Q8R4B8); assay: as §1, with “LPS/nigericin-treated” for “LPS/MSU-treated”, “activated caspase 1(P20)” for “cleaved IL-1 beta”, “nigericin” for “MSU”; format: cell-based; conditions: BMDM, dose 0.5-2 µM, time 60.0 min, DDE = dose-dependent effect
[24] = target: NACHT, LRR and PYD domains-containing protein 3 (Mus musculus) (UniProt Q8R4B8); assay: Inhibition of NLRP3 inflammasome activation in LPS-stimulated mouse J774.A1 cells assessed as reduction in pyroptosis pretreated for 4 hrs with LPS and for 30 mins with compound prior to ATP addition and measured after 30 mins by PI/Hoechst33342 staining based analysis; format: cell-based; conditions: dose 2.5-10 µM, time 60.0 min, DDE = dose-dependent effect
[25] = target: NACHT, LRR and PYD domains-containing protein 3 (Mus musculus) (UniProt Q8R4B8); assay: as §1, with “LPS/nigericin-treated” for “LPS/MSU-treated”, “nigericin” for “MSU”; format: cell-based; conditions: BMDM, dose 0.5-2 µM, time 60.0 min, DDE = dose-dependent effect
[26] = Metabolic stability in human liver microsomes assessed as intrinsic clearance by LC-MS/MS analysis; format: ADME, Microsome; conditions: read-out: CLH
[27] = target: NACHT, LRR and PYD domains-containing protein 3 (Mus musculus) (UniProt Q8R4B8); assay: as §1, with “activated caspase 1(P20)” for “cleaved IL-1 beta”, “cell lysates” for “culture supernatants”; format: subcellular; conditions: BMDM, time 60.0 min
[28] = Metabolic stability in human liver microsomes assessed as half life by LC-MS/MS analysis; format: ADME, Microsome
[29] = target: NACHT, LRR and PYD domains-containing protein 3 (Mus musculus) (UniProt Q8R4B8); assay: Inhibition of NLRP3 inflammasome activation in LPS-stimulated mouse J774.A1 cells assessed as reduction in pyroptosis at 10 uM pretreated for 4 hrs with LPS and for 30 mins with compound prior to ATP addition and measured after 30 mins by PI/Hoechst33342 staining based analysis; format: cell-based; conditions: time 60.0 min
[30] = target: NACHT, LRR and PYD domains-containing protein 3 (Mus musculus) (UniProt Q8R4B8); assay: (§4) Inhibition of NLRP3 inflammasome activation in LPS/nigericin-treated C57BL/6 mouse bone marrow-derived macrophages assessed as reduction in IL-1beta secretion preincubated for 3 hrs with LPS and for 30 mins with compound prior to nigericin addition and measured after 30 mins by ELISA; format: cell-based; conditions: BMDM, time 60.0 min, DDE = dose-dependent effect
[31] = target: NACHT, LRR and PYD domains-containing protein 3 (Mus musculus, UniProt Q8R4B8); assay: as §4; format: cell-based, BMDM
Sequence of NACHT, LRR and PYD domains-containing protein 3 (Mus musculus, UniProt Q8R4B8) (Q8R4B8 whole entry, the tested form may be a part): as the sequence (Q8R4B8 whole entry, the tested form may be a part) above

[32] = target: NACHT, LRR and PYD domains-containing protein 3 (Mus musculus) (UniProt Q8R4B8); assay: as §2, with “ASC-NLRP3” for “NEK7-NLRP3”; format: cell-based; conditions: BMDM, dose 2-4 µM, time 60.0 min
[33] = target: NACHT, LRR and PYD domains-containing protein 3 (Mus musculus) (UniProt Q8R4B8); assay: as §1, with “LPS/ATP-treated” for “LPS/MSU-treated”, “ATP” for “MSU”; format: cell-based; conditions: BMDM, time 60.0 min
[34] = target: NACHT, LRR and PYD domains-containing protein 3 (Mus musculus) (UniProt Q8R4B8); assay: Inhibition of NLRP3 inflammasome activation in LPS/MSU-treated C57BL/6 mouse bone marrow-derived macrophages assessed as reduction in IL-1beta secretion preincubated for 3 hrs with LPS and for 30 mins with compound prior to MSU addition and measured after 30 mins by ELISA; format: cell-based; conditions: BMDM, time 60.0 min
[35] = Cytotoxicity against human L02 cells assessed as reduction in cell viability incubated for 24 hrs by MTT assay; format: toxicity, cell-based

inhibition [2]: Active | inhibition [7]: Active | inhibition [8]: Active | CLint scaled [10]: 7.4 mL/min/kg | inhibition [11]: Active | Kd [14]: 213 nM | inhibition [15]: Dde | inhibition [18]: Dde | inhibition [19]: Active | inhibition [21]: Active | inhibition [22]: Active | inhibition [23]: Dde | inhibition [24]: Dde | inhibition [25]: Dde | microsomal CLint [26]: 10 µL/min/mg | inhibition [27]: Active | half-life [28]: 2.31 h | inhibition [29]: 70.8% | inhibition [30]: Dde | IC50 [31]: 1230 nM | inhibition [32]: Active | inhibition [33]: Active | inhibition [34]: Active
SMILES: COc1cc(/C=C/c2ccc(NC(=O)c3ccco3)cc2)c(/C=C/[N+](=O)[O-])c(OC)c1
Activity [1]: Active | Activity [3]: Active | Activity [4]: Active | Activity [5]: Active | Activity [6]: Active | Activity [9]: Active | Activity [12]: 29.01% | Activity [13]: 30.5% | Activity [16]: Dde | Activity [17]: Active | Activity [20]: 29.79% | IC50 at 24 h [35]: > 100000 nM
